US20240025892A1 (priority 2020, published 2024)
“Also recorded” adds a separate entry of the source.

Legend:
SIK1 = SIK1 (Homo sapiens (Human), UniProt P57059); experiment: In vitro SIK1 kinase assay; format: biochemical
Protocol: (§1) Assays were performed in base reaction buffer (20 mM Hepes (pH 7.5), 10 mM MgCl2, 1 mM EGTA, 0.02% Brij35, 0.02 mg/mL BSA, 0.1 mM Na3VO4, 2 mM DTT, 1% DMSO). Compounds were dissolved in 100% DMSO in a 10 mM stock. […] Assays were performed for 20 minutes at room temperature, after which time ^33P-ATP (10 μCi/μL) was added followed by incubation for another 120 minutes at room temperature. Thereafter, radioactivity incorporated into the pEY peptide substrate was detected by filter-binding method. Kinase activity data were expressed as the percent remaining kinase activity in test samples compared to DMSO reactions. IC50 values and curve fits were obtained using Prism (GraphPad Software).

SIK3 in HEK293T cells = SIK3 in HEK293T cells (Homo sapiens (Human), UniProt Q9Y2K2); experiment: cell-based; settings: read-out: IC50 for SIK3 (nanoBRET)
SIK3 in HEK293T cells, sequence (Q9Y2K2 whole entry): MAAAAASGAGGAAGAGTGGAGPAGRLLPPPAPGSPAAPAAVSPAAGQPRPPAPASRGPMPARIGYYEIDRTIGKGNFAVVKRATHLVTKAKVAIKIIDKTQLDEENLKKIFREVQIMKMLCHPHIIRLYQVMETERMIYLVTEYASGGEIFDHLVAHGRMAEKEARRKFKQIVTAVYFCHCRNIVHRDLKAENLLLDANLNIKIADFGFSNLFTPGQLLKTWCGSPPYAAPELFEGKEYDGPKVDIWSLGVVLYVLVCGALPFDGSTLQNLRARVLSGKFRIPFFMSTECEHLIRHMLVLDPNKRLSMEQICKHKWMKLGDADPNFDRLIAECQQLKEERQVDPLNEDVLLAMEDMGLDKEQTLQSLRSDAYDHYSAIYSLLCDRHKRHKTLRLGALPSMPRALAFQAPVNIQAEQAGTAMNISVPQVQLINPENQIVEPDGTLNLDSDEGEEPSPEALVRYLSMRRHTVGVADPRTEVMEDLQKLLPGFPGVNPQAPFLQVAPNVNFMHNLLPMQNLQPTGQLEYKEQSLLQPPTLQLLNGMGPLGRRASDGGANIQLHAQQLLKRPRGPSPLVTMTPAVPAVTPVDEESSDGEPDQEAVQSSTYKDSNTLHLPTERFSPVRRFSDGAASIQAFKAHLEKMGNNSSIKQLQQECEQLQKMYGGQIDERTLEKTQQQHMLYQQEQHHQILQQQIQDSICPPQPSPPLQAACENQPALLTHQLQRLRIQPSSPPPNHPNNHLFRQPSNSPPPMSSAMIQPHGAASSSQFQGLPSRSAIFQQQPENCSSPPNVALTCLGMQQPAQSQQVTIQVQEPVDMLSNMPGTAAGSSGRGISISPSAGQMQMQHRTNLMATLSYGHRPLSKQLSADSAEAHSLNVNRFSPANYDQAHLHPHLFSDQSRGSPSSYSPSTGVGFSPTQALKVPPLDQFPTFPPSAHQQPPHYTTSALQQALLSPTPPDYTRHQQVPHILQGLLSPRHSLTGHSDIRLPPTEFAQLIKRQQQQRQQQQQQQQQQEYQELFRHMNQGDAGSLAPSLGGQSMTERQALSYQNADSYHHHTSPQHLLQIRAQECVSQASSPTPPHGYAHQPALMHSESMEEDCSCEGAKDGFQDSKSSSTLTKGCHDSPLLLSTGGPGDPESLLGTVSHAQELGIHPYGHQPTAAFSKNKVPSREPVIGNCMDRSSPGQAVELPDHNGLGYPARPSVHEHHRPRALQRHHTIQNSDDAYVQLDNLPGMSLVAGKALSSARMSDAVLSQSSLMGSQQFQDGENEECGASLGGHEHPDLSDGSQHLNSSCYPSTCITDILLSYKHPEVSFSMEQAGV

RANKL = RANKL gene expression in Ocy454 cells (RT-qPCR); settings: for RANKL expression: 4 hours, RT-qPCR;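 as to all read-outs here: Ocy454 cells moved to 37 °C for osteocytic differentiation before compound exposure, RANKL mRNA by SYBR Green qRT-PCR, 2^−ΔΔCT with β-actin normalization, duplicate wells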
SIK1 in HEK293T cells = SIK1 in HEK293T cells (Homo sapiens (Human), UniProt P57059); experiment: cell-based; settings: read-out: IC50 for SIK1 (nanoBRET)
SIK1 in HEK293T cells, sequence (P57059 whole entry): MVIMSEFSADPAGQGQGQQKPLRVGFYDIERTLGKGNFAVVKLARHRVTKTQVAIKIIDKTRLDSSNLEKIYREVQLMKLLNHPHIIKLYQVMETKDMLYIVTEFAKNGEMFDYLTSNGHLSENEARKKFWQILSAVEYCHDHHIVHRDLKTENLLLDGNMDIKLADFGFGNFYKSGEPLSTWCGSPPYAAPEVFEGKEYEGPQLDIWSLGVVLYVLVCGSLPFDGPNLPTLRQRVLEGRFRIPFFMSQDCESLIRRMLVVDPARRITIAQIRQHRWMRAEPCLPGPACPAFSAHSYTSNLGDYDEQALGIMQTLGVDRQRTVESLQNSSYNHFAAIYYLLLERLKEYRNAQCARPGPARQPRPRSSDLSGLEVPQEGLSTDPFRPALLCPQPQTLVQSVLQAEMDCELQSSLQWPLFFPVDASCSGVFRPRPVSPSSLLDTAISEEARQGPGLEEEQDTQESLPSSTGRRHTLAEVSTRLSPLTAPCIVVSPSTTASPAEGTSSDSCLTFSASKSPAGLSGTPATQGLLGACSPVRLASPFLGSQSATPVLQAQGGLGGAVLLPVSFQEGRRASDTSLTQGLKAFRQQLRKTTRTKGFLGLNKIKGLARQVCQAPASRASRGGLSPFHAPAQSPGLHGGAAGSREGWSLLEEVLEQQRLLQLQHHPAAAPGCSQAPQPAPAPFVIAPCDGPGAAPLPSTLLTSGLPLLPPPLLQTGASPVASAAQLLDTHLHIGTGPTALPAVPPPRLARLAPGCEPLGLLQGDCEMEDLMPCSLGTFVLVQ

Recombinant SIK2 = Recombinant SIK2 (Homo sapiens (Human), UniProt Q9H0K1); experiment: biochemical; settings: recombinant SIK2 2.5 nM, 1 μM ATP; read-out: SIK2 IC50
Recombinant SIK2, sequence (Q9H0K1 whole entry, the tested form may be a part): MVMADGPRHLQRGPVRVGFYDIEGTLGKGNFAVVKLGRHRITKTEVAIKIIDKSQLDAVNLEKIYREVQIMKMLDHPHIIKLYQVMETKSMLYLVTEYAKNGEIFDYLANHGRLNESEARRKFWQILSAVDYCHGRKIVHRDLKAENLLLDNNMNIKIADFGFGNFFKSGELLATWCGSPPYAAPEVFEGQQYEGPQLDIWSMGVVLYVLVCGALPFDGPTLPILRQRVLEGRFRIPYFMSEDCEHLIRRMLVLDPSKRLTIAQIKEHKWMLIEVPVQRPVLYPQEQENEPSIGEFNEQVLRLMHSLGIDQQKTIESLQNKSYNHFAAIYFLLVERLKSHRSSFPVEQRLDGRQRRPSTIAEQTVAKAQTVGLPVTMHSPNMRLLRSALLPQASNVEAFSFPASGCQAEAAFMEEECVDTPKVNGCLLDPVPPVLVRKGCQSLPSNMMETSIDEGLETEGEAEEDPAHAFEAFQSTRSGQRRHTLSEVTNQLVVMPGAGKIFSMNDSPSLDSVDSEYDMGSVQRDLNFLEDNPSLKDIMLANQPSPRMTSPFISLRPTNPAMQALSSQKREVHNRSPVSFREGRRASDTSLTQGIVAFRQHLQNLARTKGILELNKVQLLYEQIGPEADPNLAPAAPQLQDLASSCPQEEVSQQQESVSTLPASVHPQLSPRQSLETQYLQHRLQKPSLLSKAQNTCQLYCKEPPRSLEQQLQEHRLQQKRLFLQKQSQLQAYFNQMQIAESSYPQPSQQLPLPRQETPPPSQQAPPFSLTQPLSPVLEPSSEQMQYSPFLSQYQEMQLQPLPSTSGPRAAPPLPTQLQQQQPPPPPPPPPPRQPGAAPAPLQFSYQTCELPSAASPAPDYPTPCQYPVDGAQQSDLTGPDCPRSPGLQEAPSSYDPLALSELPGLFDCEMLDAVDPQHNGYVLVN

[1] = target: NanoLuc-SIK2 fusion in HEK293 cells (Homo sapiens (Human), UniProt Q9H0K1); experiment: cell-based; settings: HEK293T cells; read-out: IC50 for SIK2 (nanoBRET)
NanoLuc-SIK2 fusion in HEK293 cells, sequence (Q9H0K1 whole entry, the tested form may be a part): as above

SIK3 = SIK3 (Homo sapiens (Human), UniProt Q9Y2K2); experiment: In vitro SIK3 kinase assay; format: biochemical
SIK3, sequence (Q9Y2K2 whole entry): as the sequence (Q9Y2K2 whole entry) above
Protocol: as §1

HDAC4/5 = HDAC4/5 phosphorylation immunoblot in Ocy454 cells; format: cell-based; settings: 2 hours
Protocol: Immunoblotting was performed as previously described (see e.g., Wein et al, Nature Communications, 2016, 7:13176; and Sato et al, Nature Communications, 2020, 11(1):3282). […]. Adherent cells were washed with ice cold PBS, then scraped into TNT buffer on ice. Material was then transferred into Eppendorf tubes kept on ice, vortexed at top speed for 30 seconds, then centrifuged at top speed for 6 minutes at 4° C. For subcellular fractionation, cells were initially resuspended in hypotonic lysis buffer (20 mM HEPES, 10 mM KCl, 1 mM MgCl2, 0.1% Triton X-100, 5% glycerol supplemented with DTT, protease inhibitors, and phosphatase inhibitors) for 5 minutes on ice. Nuclear pellets were spun down at 5,000 rpm for 5 minutes, and the supernatant was saved as the cytoplasmic lysate. Thereafter, the nuclear pellet was washed once in 1 mL hypotonic lysis buffer. The nuclear pellet was then resuspended in hypertonic lysis buffer (20 mM HEPES, 400 mM NaCl, 1 mM EDTA, 0.1% Triton X-100, 5% glycerol supplemented with DTT, protease inhibitors, and phosphatase inhibitors), followed by vortexing twice for 30 seconds. Debris was spun down at 14,000 rpm for 5 minutes, and the supernatant was saved as the nuclear lysate. For immunoblotting, lysates or immunoprecipitates were separated by SDS-PAGE and proteins were transferred to nitrocellulose. Membranes were blocked with 5% milk in tris-buffered saline plus 0.05% Tween-20 (TBST) and incubated with primary antibody overnight at 4° C. The next day, membranes were washed, incubated with appropriate HRP-coupled secondary antibodies, and signals detected with ECL Western Blotting Substrate (Pierce), ECL Plus Western Blotting Substrate (Pierce), or SuperSignal West Femto Maximum Sensitivity Substrate (Thermo scientific). The primary antibodies phospho-HDAC4/5/7 (S246/S259/S155) (Cell Signaling Technology, 3443) and total HDAC5 (Assay Biotech, C0225).

[2] = tested on: eugonadal 8 week old male mice; experiment: 3-week mouse study: tibia histology and femur histomorphometry; format: in vivo; settings: 3 weeks
Protocol: (§2) […]. In addition, one group of mice with oral vehicle solution (negative control) and another group of mice were treated with once daily subcutaneous hPTH(1-34) (80 μg/kg) injections (positive control). […].

[3] = tested on: eugonadal 8 week old male mice; experiment: 3-week mouse study: serum mineral metabolism parameters and bone turnover markers; format: in vivo; settings: for serum CTX (bone resorption marker) / serum P1NP (bone formation marker): 40 mg/kg oral, 21 days, compared to vehicle; for serum 1,25-vitamin D / serum BUN / serum PTH levels / serum calcium / serum phosphorus: after 21 days of treatment, 2 hours after final dose
Protocol: . In addition, one group of mice with oral vehicle solution (negative control) and another group of mice were treated with once daily subcutaneous hPTH(1-34) (80 μg/kg) injections (positive control). […]. Serum mineral metabolism parameters were measured in mice in all 5 treatment groups after 21 days of treatment (serum was collected 2 hours after the final treatment dose). […]. Serum bone turnover markers (P1NP, a marker of bone formation; CTX, a marker of bone resorption) were next measured on samples collected after 21 days of treatment. […]

[4] = Initial mouse pharmacokinetic study; format: in vivo
[5] = tested on: eugonadal 8 week old male mice; experiment: 3-week mouse study: femur microCT; format: in vivo; settings: 3 weeks; for midshaft cortical bone tissue mineral density (TMD), microCT: femur
Protocol: as §2

[6] = tested on: bone cell marker genes, sclerostin; experiment: 3-week mouse study: cortical bone RT-qPCR and sclerostin immunohistochemistry; format: in vivo, mice; settings: 3 weeks of treatment
Protocol: . For this, cortical bone RNA isolated from mice following three weeks of cmpd. 51 treatment were analyzed and subjected to RT-qPCR for well-established bone cell marker genes. […]. […] Therefore, sclerostin (encoded by the Sost gene) expression in bone in response to cmpd. 51 treatment was also assessed by RT-qPCR and immunohistochemistry. […]. Cmpd. 55A (FIG. 17) was also identified. […]

[7] = 3-week mouse study: tolerability and serum drug levels; format: in vivo, mice
Protocol: […]. For oral gavage, cmpd. 51 was dissolved in vehicle solution of 15% hydroxy-propyl beta-cyclodextrin in sterile water.
as §2

SOST = SOST gene expression in Ocy454 cells (RT-qPCR); format: cell-based; settings: 4 hours
CRTC2 (TORC2) = experiment: CRTC2 nuclear translocation (PathHunter U2OS); format: cell-based
How it was run: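 U2OS enzyme-fragment complementation cells (ED-tagged CRTC2, EA-tagged nuclear TAZ domain) treated 90 minutes, duplicate 5-point 4-fold dilutions from 10 μM. Chemiluminescent substrate signal; maximal translocation expressed as percent of forskolin-stimulated signal.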

SIK1, sequence (P57059 whole entry): as the sequence (P57059 whole entry) above

## CCc1nnc(-c2c(OC)cc(-c3cnc4cc(-c5cnn(C6CC6)c5)ccn34)cc2OC)o1 [Example 55, 2-[4-[7-(1-Cyclopropylpyrazol-4-yl)imidazo[1,2-a]pyridin-3-yl]-2,6-dimethoxy-phenyl]-5-ethyl-1,3,4-oxadiazole]
SIK1
  IC50: 16 nM
SIK3 in HEK293T cells
  IC50: 4.48 nM
RANKL; maximal RANKL fold induction versus DMSO, four hours
  RANKL Fold Induction: 22.80 fold
SIK1 in HEK293T cells
  IC50: 2100 nM
Recombinant SIK2
  IC50: 1.48 nM
[1]
  IC50: 12.2 nM
SIK3
  IC50: 2.66 nM

## CCc1nnc(-c2c(OC)cc(-c3cnc4cc(-c5cnn(C)c5)ccn34)cc2OC)o1 [Example 51, 2-[2,6-Dimethoxy-4-[7-(1-methylpyrazol-4-yl)imidazo[1,2-a]pyridin-3-yl]phenyl]-5-ethyl-1,3,4-oxadiazole]
HDAC4/5
  HDAC4/5 phosphorylation: reduces levels of HDAC4/5 phosphorylation
HDAC4/5; listed as Cmpd. 51
  HDAC4/5 phosphorylation: reduced phosphorylated HDAC4/5 levels
HDAC4/5; listed as cmpd. 51
  HDAC4/5 phosphorylation: dose-dependent reduction of phosphorylation
[2]; cmpd. 51 40 mg/kg
  TRAP-positive osteoclasts (tibia sections): increased TRAP-positive osteoclasts
  osteoblasts (tibia sections): increased osteoblasts
  trabecular bone (tibia sections, hematoxylin and eosin): increased trabecular bone mass
[2]; distal femur metaphysis
  bone formation rate (BFR/BS), histomorphometry: increased the bone formation rate
  bone volume fraction (BV/TV), histomorphometry: increased bone volume fraction (BV/TV); also recorded: increased trabecular bone mass
  matrix apposition rate (MAR), histomorphometry: increased matrix apposition rate
  mineralizing surface (MS/BS), histomorphometry: Neither cmpd. 51 nor PTH treatment increased
  osteoblast surfaces (Ob.S.BS), histomorphometry: increased osteoblast surfaces
  osteoclast numbers (N.Oc/B.Pm), histomorphometry: increased osteoclast numbers
[3]; listed as Cmpd. 51
  serum CTX (bone resorption marker): increasing this marker of bone remodeling
  serum P1NP (bone formation marker): increasing this marker of bone remodeling
  serum 1,25-vitamin D: increased serum 1,25-vitamin D
  serum BUN: did not affect serum BUN levels
  serum PTH levels: suppressed PTH levels
  serum calcium: increased serum calcium
  serum phosphorus: did not affect serum phosphorus levels
[3]; listed as cmpd. 51
  serum CTX (bone resorption marker): increased
  serum P1NP (bone formation marker): increased P1NP
  serum 1,25-vitamin D: increased 1,25-vitamin D levels
  serum BUN: did not alter
  serum PTH levels: reduced serum PTH levels
  serum calcium: increased calcium
  serum phosphorus: did not alter
[4]; single dose of 10 mg/kg
  oral availability: excellent oral availability
[4]; single oral dose of 10 mg/kg
  maximum serum concentration: 11 µM
[5]; distal femur, 40 mg/kg
  primary spongiosa bone mineral density (BMD), microCT: increased bone mineral density (BMD)
  primary spongiosa bone volume fraction (BV/TV), microCT: increased primary spongiosa bone volume fraction (BV/TV)
[5]; listed as Cmpd. 51
  midshaft cortical bone tissue mineral density (TMD), microCT: increased cortical bone tissue mineral density
[5]; listed as cmpd. 51
  midshaft cortical bone tissue mineral density (TMD), microCT: gains in bone mass
[6]; RT-qPCR
  Ctsk (cathepsin K) expression in cortical bone: expression was increased; also recorded: increases the expression
  Sost mRNA (sclerostin gene expression) in cortical bone: reduced sclerostin gene expression
  Spp1 (osteopontin) expression in cortical bone: expression was increased; also recorded: increases the expression of Spp1
[6]; immunohistochemistry
  sclerostin protein levels in bone: reduced
RANKL
  RANKL expression: stimulates RANKL expression
RANKL; listed as cmpd. 51
  RANKL expression: increased RANKL; also recorded: induction of RANKL
[7]; 2 hours after oral gavage on day 13, 3 dose groups
  serum drug levels: increased in a dose-dependent manner; also recorded: Dose-dependent increases
[7]; mice, once daily oral gavage for 3 weeks
  tolerability (health concerns, weight loss, toxicities): without obvious health concerns or weight loss; also recorded: without obvious toxicities
SOST
  SOST expression: reduces SOST
SOST; listed as cmpd. 51
  SOST expression: suppressed SOST expression; also recorded: suppression of SOST expression
CRTC2 (TORC2); Homo sapiens, U2OS, read-out: CRTC2 nuclear translocation EC50
  EC50: 147 nM
CRTC2 (TORC2); maximal CRTC2 nuclear translocation, U2OS cells, 90 minutes, maximum dose 10 μM
  CRTC2 Efficacy (% of forskolin): 86.5 % of forskolin
